Earlier results, collected in patent US20100151107A1, “EXTRACTION METHOD FOR THE CLASSIFIED EXTRACTION AND SEPARATION OF VEGETABLE COMPONENT MATERIALS, AND THE APPLICATION THEREOF” (priority 2006, published 2010).

Experiments:
[1] = system: isolated mouse mammary gland cells; settings: MMOC-test; versus resveratrol isolated from red vine
[2] = in-vitro; against osteoporosis, arteriosclerosis, diseases of the coronary vessels, heart attack and stroke
healthy cells = settings: all hitherto described in-vitro experiments
[3] = rats; dose 1.000 mg xanthohumol per kg body weight
[4] = system: 60 different human tumour-cell lines; settings: 60 different human tumour-cell lines (leukaemia, lung cancer, large intestine, melanoma, breast cancer)

Structure (SMILES): COc1cc(O)c(CC=C(C)C)c(O)c1C(=O)/C=C/c1ccc(O)cc1 [Xanthohumol, xanthohumol]
- effectiveness relative to resveratrol [1]: more than 200 fold
- preventive effect [2]: preventive effect
- cytotoxic effect against healthy cells (healthy cells): no cytotoxic effect
- toxic effect [3]: no toxic effect
- growth inhibiting and cytotoxic effect [4]: growth inhibiting and cytotoxic effect
